# Laboratory results published in patent US11052154B2, “Ras protein degradation inducing molecule and pharmaceutical composition” (Tokyo University of Science Foundation, priority 2016, dated 2021).
# Experiments:
# [1] = biological target: T1, endogenous wild-type H-Ras protein (Mus musculus, UniProt Q61411); test: Degradation of endogenous wild-type H-Ras protein in mouse pancreas and colorectal tissue, Western blot analysis; format: in vivo; conditions: C57BL/6J mice, intraperitoneal, 48 hours, FIG. 8
# T1 construct: an endogenous wild-type K-Ras protein and wild-type H-Ras protein; from tissue; host or cells: mouse pancreas and colon
# T1 sequence (Q61411 whole entry): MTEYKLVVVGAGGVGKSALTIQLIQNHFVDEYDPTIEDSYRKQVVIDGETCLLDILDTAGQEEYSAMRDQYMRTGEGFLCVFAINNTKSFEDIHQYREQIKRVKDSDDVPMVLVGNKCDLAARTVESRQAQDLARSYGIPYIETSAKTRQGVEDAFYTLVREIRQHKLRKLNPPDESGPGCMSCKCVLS
# Protocol: In Example 9, in a mouse individual to which TUS-007 had been administered, the degradation (knockdown) of an endogenous wild-type K-Ras protein and wild-type H-Ras protein was evaluated by Western blot analysis.
# TUS-007 was dissolved in DMSO, and then dissolved in corn oil so that the concentration of DMSO was 10 vol %, and then intraperitoneally administered to C57BL/6J wild-type mice (8 to 9 weeks old, male) (CLEA Japan, Inc.) in an amount of 40 mg/kg body weight or 80 mg/kg body weight (n=3 to 4). Furthermore, in addition to a group in which TUS-007 was administered, a group in which Ras-SOS had been administered in a dose of 80 mg/kg body weight was prepared. As a control, an injection carrier (corn oil containing 10 vol % DMSO) was used. The mice were kept under an environment of ad libitum access to food and water. The mice were dissected under deep anesthesia 48 hours after administration. The pancreas and colon were excised, and flash frozen in liquid nitrogen.
# The frozen pancreas and colon were each triturated, and then TKM tissue lysis buffer (50 mM triethanolamine (pH 7.8), 50 mM KCl, 5 mM MgCl2, 0.25 M sucrose, 1 mM PMSF, Protein Inhibitors Cocktail-EDTA free (Nacalai Tesque, Inc.), 1 mM DTT, and a recombinant RNase inhibitor (0.2 U/μL, Takara Bio) were added, and subjected to centrifugation (at 13800 rpm×30 minutes, 4° C.), and the supernatants (pancreatic tissue extract and colorectal tissue extract) were collected. The concentration of the extracted proteins was quantified with a spectrophotometer.
# Each tissue extract collected was subjected to Western blot analysis. […]
# After electrophoresis, proteins were transferred to a PVDF membrane (Immobion™-P, Millipore) under conditions of 200 mA and 90 minutes using a tank-type blotting device and a transfer buffer (25 mM Tris-HCl, 195 mM glycine, 0.01% SDS, 15% methanol). […] Subsequently, the membrane was treated with a chemiluminescence reagent Immobilon™ Western (Millipore), and then chemiluminescence was detected using a lumino image analyzer LAS-3000 (FUJIFILM Corporation).
# [2] = biological target: T2, G12V mutant K-Ras protein (Homo sapiens, UniProt P01116, G12V); test: Degradation (knockdown) of G12V mutant K-Ras protein forcibly expressed in HeLa cells, FACS analysis; format: cell-based; conditions: FIG. 3
# T2 construct: expressed in transfected cells; host or cells: HeLa
# T2 sequence (P01116 1-188 isoform P01116-2 G12V): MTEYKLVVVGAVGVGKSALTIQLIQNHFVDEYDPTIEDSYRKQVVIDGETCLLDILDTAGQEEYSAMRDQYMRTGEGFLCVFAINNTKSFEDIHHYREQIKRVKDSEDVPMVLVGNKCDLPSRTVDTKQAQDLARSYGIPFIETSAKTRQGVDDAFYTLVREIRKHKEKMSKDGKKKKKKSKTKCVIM
# Protocol: HeLa cells into which the plasmid had been introduced were seeded in a 24-well plate at a cell density of 4×10^4 cells/well, and then cultured under conditions of 37° C. and 5 vol % CO2 for 40 hours.
# DMSO was used as a control.
smiles,measurement,setting,value
CCC(C)[C@H](NC(=O)CCCCCCNC(=O)[C@H](CC(C)C)NC(=O)CNC(=O)c1cc(Cl)ccc1Cl)C(=O)Nc1ccc2[nH]c(Cc3c[nH]c4ccccc34)nc2c1 (stereo in doubt) [TUS-007],amount of the endogenous wild-type H-Ras protein in the pancreatic tissue (Western blot),"[1]; 40 or 80 mg/kg, pancreatic tissue",remarkably reduced in the pancreatic tissue
same,amount of the endogenous wild-type H-Ras protein in mouse tissues (Western blot),"[1]; TUS-007 40 or 80 mg/kg, Ras-SOS 80 mg/kg, pancreas and colon",reduced in a concentration-dependent manner
same,degradation of the G12V mutant K-Ras protein when both TUS-007 and MLN2238 were added,"[2]; MLN2238 co-added, compared with TUS-007 alone",G12D mutant and G12V mutant K-Ras protein degradation was inhibited
same,degradation (knockdown) of the G12V mutant K-Ras protein (shift of GFP/DsRed ratio graph),[2]; vs control (DMSO),degradation of the G12D mutant and the G12V mutant K-Ras protein was induced
